Experimental data published in patent US20250034201A1, “PRODRUGS OF GANAXOLONE” (priority 2022, published 2025).
Read-outs that look alike come from different tables or passages of the source.

Experiment: in vitro
Type: in vitro ADME, human
Experimental: For several compounds only human liver microsomal stability was tested. […] The microsomal assays were carried out with and without the addition of NADPH at a final concentration of 1 mM. For negative control samples, NADPH reagent was not added. […] Note that compounds undergo only Phase I metabolism in liver microsomes.

[1] = human liver microsomes 0.5 mg/mL, with NADPH, compound 0.5 μM, 37° C., read-out: Human Liver Microsomal Stability t1/2
[2] = human liver microsomes 0.5 mg/mL, with NADPH, compound 0.5 μM, read-out: Human Liver Microsomal Stability CLint (uL/min/mg liver) (converted)
[3] = human liver microsomes, no NADPH, compound 0.5 μM

| SMILES | Comments: production of GNX (ganaxolone) in human liver microsomes (human liver microsomes) | half-life (human, microsomes) [min] | microsomal CLint (human, microsomes) [µL/min/mg] | Human Liver Microsomal Stability no NADPH, % remain 1 h (human, microsomes) [%] | half-life [1] [min] | microsomal CLint [2] [µL/min/mg] | Human Liver Microsomal Stability no NADPH, % remain 1 h [3] [%] | Comments: production of GNX (ganaxolone) in human liver microsomes |
| --- | --- | --- | --- | --- | --- | --- | --- | --- |
| CC(=O)[C@H]1CC[C@H]2[C@@H]3CC[C@H]4C[C@](C)(OC(=O)COC(=O)[C@@H](C)N5CCOCC5)CC[C@]4(C)[C@H]3CC[C@]12C [Compound 212] | In human small amount of GNX produced | 14.3 | 96.9 | 99 |  |  |  |  |
| CC(=O)[C@H]1CC[C@H]2[C@@H]3CC[C@H]4C[C@](C)(OC(=O)COC(=O)C(C)(C)OC(=O)CN(C)CCCO)CC[C@]4(C)[C@H]3CC[C@]12C [Compound 245] |  |  |  |  | 11.4 | 122 | 69.7 |  |
| COCCOCC(=O)OCC(=O)O[C@]1(C)CC[C@@]2(C)[C@@H](CC[C@@H]3[C@@H]2CC[C@]2(C)[C@@H](C(C)=O)CC[C@@H]32)C1 [Compound 204] |  |  |  |  | 4.12 | 337 | 10.5 |  |
| CC(=O)[C@H]1CC[C@H]2[C@@H]3CC[C@H]4C[C@](C)(OC(=O)OCCN(C)C)CC[C@]4(C)[C@H]3CC[C@]12C [Compound 419] | In human small amount of GNX produced |  |  |  | 39.5 | 35.1 | 88 |  |
| CNCC(=O)O[C@]1(C)CC[C@@]2(C)[C@@H](CC[C@@H]3[C@@H]2CC[C@]2(C)[C@@H](C(C)=O)CC[C@@H]32)C1 [Compound 114] |  |  |  |  | 277 | 5 | 99.5 |  |
| CC(=O)[C@H]1CC[C@H]2[C@@H]3CC[C@H]4C[C@](C)(OC(=O)CCC(=O)NCCN(C)C)CC[C@]4(C)[C@H]3CC[C@]12C [Compound 410] | In human no GNX produced |  |  |  | 439 | 3.16 | 99 |  |
| CC(=O)[C@H]1CC[C@H]2[C@@H]3CC[C@H]4C[C@](C)(OC(=O)CNC(C)(C)COC(=O)C(C)C)CC[C@]4(C)[C@H]3CC[C@]12C [Compound 135] |  | 3.6 | 385 | 1.3 |  |  |  |  |
| CC(=O)[C@H]1CC[C@H]2[C@@H]3CC[C@H]4C[C@](C)(OC(=O)COC(=O)CNC(=O)[C@@H](N)C(C)C)CC[C@]4(C)[C@H]3CC[C@]12C [Compound 214] |  |  |  |  | 161 | 8.6 | 79.5 |  |
| CC(=O)[C@H]1CC[C@H]2[C@@H]3CC[C@H]4C[C@](C)(OC(=O)CNC(=O)CNC(=O)[C@@H](N)C(C)C)CC[C@]4(C)[C@H]3CC[C@]12C [Compound 122] | In human no GNX produced |  |  |  | 345 | 4.02 | 99 |  |
| CC(=O)[C@H]1CC[C@H]2[C@@H]3CC[C@H]4C[C@](C)(OC(=O)CCC(=O)O)CC[C@]4(C)[C@H]3CC[C@]12C [Compound 407] | In human no GNX produced |  |  |  | 79.8 | 17.4 | 99 |  |
| CC(=O)[C@H]1CC[C@H]2[C@@H]3CC[C@H]4C[C@](C)(CC(=O)COC(=O)NCCN(C)C)CC[C@]4(C)[C@H]3CC[C@]12C [Compound 217] |  |  |  |  | 316 | 4.39 | 99.7 |  |
| CC(=O)[C@H]1CC[C@H]2[C@@H]3CC[C@H]4C[C@](C)(OC(=O)COC(=O)[C@H](C)N5CCOCC5)CC[C@]4(C)[C@H]3CC[C@]12C [Compound 211] |  |  |  |  | 10.5 | 132 | 27 |  |
| CC(=O)[C@H]1CC[C@H]2[C@@H]3CC[C@H]4C[C@](C)(OC(=O)COC(=O)C(C)(C)OC(=O)CN(CCCO)CCCO)CC[C@]4(C)[C@H]3CC[C@]12C [Compound 231] |  |  |  |  | 5.3 | 261 | 98 |  |
| CC(=O)[C@H]1CC[C@H]2[C@@H]3CC[C@H]4C[C@](C)(OC(=O)CCC(=O)OCCN(C)C)CC[C@]4(C)[C@H]3CC[C@]12C [Compound 409] | In human small amount of GNX produced | 12.8 | 108 | 7 |  |  |  |  |
| CC(=O)[C@H]1CC[C@H]2[C@@H]3CC[C@H]4C[C@](C)(OC(=O)CCN5C(=O)CCC5=O)CC[C@]4(C)[C@H]3CC[C@]12C [Compound 415] | In human small amount of GNX produced |  |  |  | 8.2 | 169 | 99 |  |
| CC(=O)[C@H]1CC[C@H]2[C@@H]3CC[C@H]4C[C@](C)(OC(=O)CSC(C)(C)C(=O)O)CC[C@]4(C)[C@H]3CC[C@]12C [Compound 305] | In human small amount of GNX produced |  |  |  | 171 | 8.12 | 98.8 |  |
| CC(=O)[C@H]1CC[C@H]2[C@@H]3CC[C@H]4C[C@](C)(OC(=O)COC(=O)C(C)(C)OC(=O)CN(C)C)CC[C@]4(C)[C@H]3CC[C@]12C [Compound 227] |  | 23.9 | 58.1 | 71 |  |  |  | In human no GNX produced |
| CC(=O)COCN(CCO)CC(=O)OC(C)(C)C(=O)OCC(=O)O[C@]1(C)CC[C@@]2(C)[C@@H](CC[C@@H]3[C@@H]2CC[C@]2(C)[C@@H](C(C)=O)CC[C@@H]32)C1 [Compound 230] |  |  |  |  | 2.94 | 471 | 1 |  |
| COC(=O)C(C)(C)NCC(=O)O[C@]1(C)CC[C@@]2(C)[C@@H](CC[C@@H]3[C@@H]2CC[C@]2(C)[C@@H](C(C)=O)CC[C@@H]32)C1 [Compound 125] |  |  |  |  | 3.9 | 354 | 1 |  |
| COC(=O)[C@@H](NCC(=O)O[C@]1(C)CC[C@@]2(C)[C@@H](CC[C@@H]3[C@@H]2CC[C@]2(C)[C@@H](C(C)=O)CC[C@@H]32)C1)C(C)C [Compound 108] | GNX not produced in human |  |  |  | 12.2 | 114 | 98 |  |
| CC(=O)OCCCN(CCCOC(C)=O)CC(=O)OC(C)(C)C(=O)OCC(=O)O[C@]1(C)CC[C@@]2(C)[C@@H](CC[C@@H]3[C@@H]2CC[C@]2(C)[C@@H](C(C)=O)CC[C@@H]32)C1 [Compound 237] |  | 5.18 | 267 | <1 |  |  |  |  |
| CC(=O)[C@H]1CC[C@H]2[C@@H]3CC[C@H]4C[C@](C)(OC(=O)CC(C)(C)C(=O)OCCN(C)C)CC[C@]4(C)[C@H]3CC[C@]12C [Compound 413] | In human no GNX produced |  |  |  | 126 | 11 | 89 |  |
| CC(=O)[C@H]1CC[C@H]2[C@@H]3CC[C@H]4C[C@](C)(OC(=O)CSC(C)(C)C(=O)NCCN(C)C)CC[C@]4(C)[C@H]3CC[C@]12C [Compound 307] | In human no GNX produced |  |  |  | 391 | 3.55 | 99 |  |
| CC(=O)[C@H]1CC[C@H]2[C@@H]3CC[C@H]4C[C@](C)(OC(=O)CC(C)(C)C(=O)NCCN(C)C)CC[C@]4(C)[C@H]3CC[C@]12C [Compound 412] | In human small amount of GNX produced |  |  |  | 273 | 5.07 | 94 |  |
| CC(=O)[C@H]1CC[C@H]2[C@@H]3CC[C@H]4C[C@](C)(OC(=O)COC(=O)C(C)(C)OC(=O)CN(C)CCOC(=O)CN)CC[C@]4(C)[C@H]3CC[C@]12C [Compound 241] |  | 3.9 | 356 | 3.68 |  |  |  |  |
| CC(=O)[C@H]1CC[C@H]2[C@@H]3CC[C@H]4C[C@](C)(OC(=O)CN(C)C(=O)CN5CCOCC5)CC[C@]4(C)[C@H]3CC[C@]12C [Compound 115] | In human no GNX produced |  |  |  | 13.8 | 100 | 99 |  |
| CC(=O)[C@H]1CC[C@H]2[C@@H]3CC[C@H]4C[C@](C)(OC(=O)COC(=O)C(C)(C)OC(=O)CN(C)CCO)CC[C@]4(C)[C@H]3CC[C@]12C [Compound 233] |  |  |  |  | 5.3 | 261 | 5 |  |
| CC(=O)[C@H]1CC[C@H]2[C@@H]3CC[C@H]4C[C@](C)(OC(=O)COC(=O)OC5CNC5)CC[C@]4(C)[C@H]3CC[C@]12C [Compound 222] | In human no GNX produced |  |  |  | 63.7 | 21.8 | 61 |  |
